From patent US20020004958A1, “Dyeing substrates” (Novozymes A/S, priority 1996, published 2002)
“Also recorded” adds a separate entry of the source.

How the values were obtained:
[1] = background statement; cited from earlier work
[2] = target: T1, horseradish peroxidase type VI-A (Armoracia rusticana, UniProt P00433); assay: Peroxidase-catalysed oxidation of substrates, initial velocity (absorbency 492 nm) vs substrate concentration, Michaelis/Menten; format: biochemical; conditions: for Kkat: Vmax/[E], worked out from peroxidase of 50,000 g/mol; for Properties as substrate for peroxidase (in words): peroxidase/hydrogen peroxide system, compared with OPD or 3,4-DABA
T1 construct: purchased Sigma 6782
T1 sequence (P00433 31-338 limits assumed): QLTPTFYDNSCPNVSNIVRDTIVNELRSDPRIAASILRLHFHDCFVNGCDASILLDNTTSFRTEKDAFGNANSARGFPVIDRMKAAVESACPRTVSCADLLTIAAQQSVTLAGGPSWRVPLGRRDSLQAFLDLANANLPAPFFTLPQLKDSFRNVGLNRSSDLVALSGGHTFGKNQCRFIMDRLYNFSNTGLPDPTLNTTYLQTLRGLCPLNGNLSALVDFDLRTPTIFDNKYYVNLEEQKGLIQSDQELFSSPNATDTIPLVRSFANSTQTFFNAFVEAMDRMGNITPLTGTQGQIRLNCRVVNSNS
Text: Absorbancy at 492 nm was used as a measure of the course of the reaction. The initial velocity was taken to be the absorbancy at 492 nm two minutes after the addition of the peroxidase to a mixture of the substrate and hydrogen peroxide in a buffer with a pH of 5.0. The wavelength of 492 nm was chosen because it is employed in the standard assay procedures for OPD.
By varying the concentration of the substrate and at the same time measuring the initial velocity of the reaction it is posible to apply the Michaelis/Menten equation to the system.
Under ideal conditions the values determined experimentally will approach the value of the expression: [formula]
where [S] is the concentration of the substrate, Vmax is the maximum initial […] which is reached in the particular assay. Km is defined as the concentration of the substrate at Vmax/2. A small Km value will therefore be characteristic for an enzyme system where a low concentration of the substrates produces saturation of the enzyme.
The expression implies that the initial velocity will increase with increasing concentration of the substrate, but the curve for the velocity will flatten out and approach Vmax for very high concentrations of the substrate. In actual fact the parameter Kkat be calculated as Vmax/[E] where [E] is the molar concentration of the enzyme in the reaction. Kkat is the same as min^−1 and reflects the activity of the enzyme in a saturated solution upon the substrate.
The following solutions were prepared for use in the enzyme assay:
A 50 mM phosphate/citrate buffer with a pH of 5.0 was made by mixing a 50 mm Na2HPO4 solution and a 50 mm solution of citric acid. The pH was measured while mixing was in progress.
15 μl of a 30% solution of hydrogen peroxide (PERHYDROL, Merck) was thinned down with 25 ml of the assay buffer.
The stabilizing buffer for peroxidase, i.e. a buffer which stabilizes the enzyme, was prepared according to the method of Olsen and Little (1983). A 0.1M Na-acetate buffer, which was 0.5M in terms of CaCl2 was adjusted to pH 5.6.
10 mg of horseradish peroxidase type VI-A (Sigma no. 6782) were dissolved in 10 ml of the stabilizing buffer. This was stored at −15° C.
The standard peroxidase solution was diluted to 1:1000 with the 10 ml assay-buffer solution in 10 μl standard solution.
0.5 mmol of each substrate in 5 ml DMF.
The standard solutions were diluted by 1:10 with the assay buffer. Before being used the substrate solutions were diluted by 1:10. 0.5 ml of the standard solution was thinned down with 4.5 ml of the assay buffer.
The concentration of the peroxidase was held constant at 50 ng/ml during the whole investigation. By using the volume of substrate and the volumes of 10 vol-% DMF solution as given in table 4 it was possible to employ a constant reaction volume and a constant concentration of DMF. For all measurements there was used 1550 μl buffer and 50 μl bench solution of peroxidase. The total volume is then as follows: 300 μI DMF and substrate solution, 1550 μl buffer, […] bench solution of peroxidase and 50 μl hydrogen peroxide solution. That is 2000 μl in total.
The results of the measurements of initial velocities are stated in units of absorbency and not in molar units. In order to be able to measure the “true” velocity of reaction it is necessary to isolate the oxidation product for each substrate and determine the molar extinction coefficient. The value of Kkat is worked out from 1 mole of peroxidase of 50,000 g/mol.

[3] = system: Salmonella tphimurium TA 98; assay: Ames test for mutagenicity, with and without S9-mix; format: cell-based; conditions: 100 μl of 50, 100 and 200 mM solutions in DMSO, with and without rat liver S9-mix
Protocol: The Ames test (Maron and Ames (1983)) was used to determine the mutagenic properties of the compounds. Nutrient media were prepared in the manner described by Venitt and Parry (1984). To 3×2 ml melted agar at 45° C. were added 100 μl of 50, 100 and 200 mM of solutions of the compounds dissolved in DMSO. By means of a pipette 100 μl of a well-grown culture of Salmonella tphimurium TA 98 (BIO-TEST gl. skolevej 47, 6731 Tiaereborg) were added to the same test-tube. The bacteria contain a frameshift mutation on the histinol-dehydrogenase gene and require histidin in order to grow. Mutagenic aromatic amines can cause the bacteria to mutate to His+ and they can then grow on the nutrient medium. The number of colonies after incubation therefore give a quantitative measure of the ability of the added compound to cause mutation. In all trials spontaneous mutations take place in the absence of a mutagen. These provide a measure of “background” mutation.
All trials were therefore carried out both with and without the addition of “S9-mix” from the livers of rats, this contains the P450 system. 0.5 ml of […] was added to each test-tube. The criteria for mutation are that increasing concentrations of the compound under investigation give a marked increase in the number of His+ mutants.

melting point | Kkat [2] | Compound | Properties as substrate for peroxidase (in words) [2] | other results
 |  | CCn1c(=NN=c2sc3cc(S(=O)(=O)O)ccc3n2CC)sc2cc(S(=O)(=O)O)ccc21 [ABTS, 2,2-azino-di (3-ethyl-benzo thiazolin-6-sulphonic acid)] |  | Mutagenicity (known) [1]: mutagent
 |  | Nc1ccc(C(=O)O)cc1 [PABA, p-amino benzoic acid] |  | Toxicity (generally considered) [1]: non-toxic
 |  | Nc1ccccc1 [aniline] |  | Toxicity (generally considered) [1]: very toxic
108 to 109 °C | 2.2 * 10^8 1*mol^−1*min^−1 | COC(=O)c1ccc(N)c(N)c1 [methyl ester, 3,4-diaminobenzoic acid methyl ester] | significantly improved properties than 3,4-DABA | 
112 to 113 °C | 2.7 * 10^8 1*mol^−1*min^−1 | CCOC(=O)c1ccc(N)c(N)c1 [ethyl ester, 3,4-diamino benzoic acid ethyl ester] | significantly improved properties than 3,4-DABA; also recorded: very high Vmax | 
73 to 74 °C | 2.2 * 10^8 1*mol^−1*min^−1 | CC(C)OC(=O)c1ccc(N)c(N)c1 [isopropyl ester, 3,4-diamino benzoic acid isopropyl ester] | significantly improved properties than 3,4-DABA | 
 | 2.0 * 10^8 1*mol^−1*min^−1 | Nc1ccc(C(=O)O)cc1N [3,4-DABA, 3,4-diamino benzoic acid] | considerably poorer substrate for peroxidase than is OPD; also recorded: higher Km-value at the same Vmax when compared with OPD | 

Compound | melting point | Kkat [2] | Properties as substrate for peroxidase (in words) [2] | other results
Nc1ccccc1N [OPD, o-phenylendiamine] |  | 1.6 * 10^8 1*mol^−1*min^−1 |  | Carcinogenicity (known) [1]: carcinogenic; Mutagenicity (known) [1]: mutagenic; also recorded: not a direct mutagen; Mutagenic properties (His+ mutants with increasing concentration) [3]: has mutagenic properties
